Experimental data taken from article PMC7006757, “Design, synthesis and in vitro biological evaluation of quinazolinone derivatives as EGFR inhibitors for antitumor treatment” (Journal of Enzyme Inhibition and Medicinal Chemistry, 2020).

Legend:
[1] = test system: SMMC-7721 cells; test: MTT assay, SMMC-7721; conditions: Homo sapiens; for IC50: SMMC-7721, read-out: IC50 (μM) SMMC-7721; for inhibition at 10 µM: SMMC-7721, read-out: Inhibition rate (%, 10 μM) SMMC-7721
[2] = molecular target: T1, EGFR^wt-TK (Homo sapiens, UniProt P00533); test: In vitro EGFR^wt-TK assay (ELISA with recombinant EGFR); type: biochemical; conditions: mean ± SD of three replicates; for inhibition at 1 µM: read-out: EGFR^wt-TK inhibition rate (%, 1 μM)
T1 construct: purchased Sino Biology Inc
T1 sequence (P00533 25-1210): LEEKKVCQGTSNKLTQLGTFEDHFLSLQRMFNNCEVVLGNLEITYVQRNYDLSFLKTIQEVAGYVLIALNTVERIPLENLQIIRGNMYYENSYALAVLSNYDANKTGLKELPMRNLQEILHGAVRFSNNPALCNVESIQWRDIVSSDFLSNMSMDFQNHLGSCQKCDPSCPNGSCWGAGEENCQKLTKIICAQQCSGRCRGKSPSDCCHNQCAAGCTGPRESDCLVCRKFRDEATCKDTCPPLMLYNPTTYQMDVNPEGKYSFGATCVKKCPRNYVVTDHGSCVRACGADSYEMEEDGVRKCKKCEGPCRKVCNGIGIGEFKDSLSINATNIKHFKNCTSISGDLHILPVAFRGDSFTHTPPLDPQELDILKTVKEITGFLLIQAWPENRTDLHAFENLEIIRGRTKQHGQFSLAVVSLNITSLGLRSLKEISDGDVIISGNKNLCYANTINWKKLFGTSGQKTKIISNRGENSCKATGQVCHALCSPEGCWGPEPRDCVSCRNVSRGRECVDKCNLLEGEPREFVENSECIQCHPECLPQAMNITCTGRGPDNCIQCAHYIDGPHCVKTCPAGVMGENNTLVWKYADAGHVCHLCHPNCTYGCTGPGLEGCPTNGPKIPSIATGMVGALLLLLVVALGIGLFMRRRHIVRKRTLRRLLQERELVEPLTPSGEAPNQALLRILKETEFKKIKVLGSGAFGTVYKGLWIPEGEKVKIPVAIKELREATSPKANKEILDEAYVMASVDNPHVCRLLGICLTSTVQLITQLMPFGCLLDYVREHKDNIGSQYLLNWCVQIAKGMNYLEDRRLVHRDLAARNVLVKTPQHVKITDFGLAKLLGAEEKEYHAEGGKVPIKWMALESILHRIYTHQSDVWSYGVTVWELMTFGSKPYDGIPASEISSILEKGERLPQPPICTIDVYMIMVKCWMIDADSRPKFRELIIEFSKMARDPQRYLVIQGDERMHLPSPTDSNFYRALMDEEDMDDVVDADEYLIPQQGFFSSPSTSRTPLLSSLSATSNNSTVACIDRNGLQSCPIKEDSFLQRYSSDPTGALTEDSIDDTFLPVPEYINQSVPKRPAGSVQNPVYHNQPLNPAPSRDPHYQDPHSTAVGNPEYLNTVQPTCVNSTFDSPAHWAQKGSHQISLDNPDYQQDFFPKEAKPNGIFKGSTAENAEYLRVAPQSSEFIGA
Method: Recombinant EGFR was purchased from Sino Biology Inc. Antiphosphotyrosine mouse mAb was purchased from PTM Bio. The effects of compounds on the activity of wild type EGFR tyrosine kinase were determined by enzyme-linked immunosorbent assays (ELISAs) with recombinant EGFR according to reported methods.

[3] = test system: A549 cells; test: MTT assay, A549; conditions: Homo sapiens; for IC50: A549, read-out: IC50 (μM) A549; for inhibition at 10 µM: A549, read-out: Inhibition rate (%, 10 μM) A549
[4] = test system: PC-3 cells; test: MTT assay, PC-3; conditions: Homo sapiens; for IC50: PC-3, read-out: IC50 (μM) PC-3; for inhibition at 10 µM: PC-3, read-out: Inhibition rate (%, 10 μM) PC-3
[5] = test system: EGFR; conditions: Figure 2; read-out: Reported EGFR inhibitors: IC50; cited from earlier work
[6] = test system: A549 cells; test: Cell cycle analysis, PI flow cytometry; type: cell-based, human; conditions: for Percentage of cells in G0/G1 / Percentage of cells in G2/M / Percentage of cells in S: 48 h
[7] = test system: A549 cells; test: Cell apoptosis analysis, Annexin V-FITC/PI flow cytometry; type: cell-based, human; conditions: A549, 5, 10, 20 μM, 48 h

| melting point | inhibition at 1 µM [2] | SMILES | inhibition at 10 µM [1] | inhibition at 10 µM [3] | inhibition at 10 µM [4] | other results |
| --- | --- | --- | --- | --- | --- | --- |
| 168 to 170 °C | 65 ± 1.51% | Cn1c(COc2ccc(/C=N/c3cccc(F)c3)cc2)nc2ccccc2c1=O [5g, (E)-2-((4-(((3-fluorophenyl)imino)methyl)phenoxy)methyl)-3-methylquinazolin-4(3H)-one] | 35.6 ± 1.27% | 15.6 ± 2.56% | 4.76 ± 0.51% | IC50 [1]: 35.9 ± 5.85 µM; IC50 [2]: 0.047 ± 0.004 µM; IC50 [3]: 19.7 ± 2.34 µM; IC50 [4]: 30.1 ± 1.86 µM |
| 182 to 184 °C | 50.8 ± 3.29% | Cc1ccc(/N=C/c2ccc(OCc3nc4ccccc4c(=O)n3C)cc2)cc1 [5c, (E)-3-methyl-2-((4-((p-tolylimino)methyl)phenoxy)methyl)quinazolin-4(3H)-one] | 31.8 ± 9.91% | 12.1 ± 2% | 7.46 ± 0.52% |  |
| 176 to 178 °C | 53.3 ± 1.58% | Cn1c(COc2ccc(/C=N/c3cccc(Br)c3)cc2)nc2ccccc2c1=O [5j, (E)-2-((4-(((3-bromophenyl)imino)methyl)phenoxy)methyl)-3-methylquinazolin-4(3H)-one] | 18.6 ± 1.51% | 18 ± 6.69% | 17.9 ± 6.12% |  |
| 181 to 183 °C | 25.8 ± 1.92% | Cn1c(COc2ccc(/C=N/c3c(F)cccc3F)cc2)nc2ccccc2c1=O [5m, (E)-2-((4-(((2,6-difluorophenyl)imino)methyl)phenoxy)methyl)-3-methylquinazolin-4(3H)-one] | 15.1 ± 5.79% | 15.2 ± 3.61% | 26.8 ± 0.59% |  |
| 152 to 154 °C | 63.4 ± 1.83% | Cn1c(COc2ccc(/C=N/c3ccc(F)c(F)c3)cc2)nc2ccccc2c1=O [5k, (E)-2-((4-(((3,4-difluorophenyl)imino)methyl)phenoxy)methyl)-3-methylquinazolin-4(3H)-one] | 34.9 ± 4.72% | 27 ± 1.63% | 57.5 ± 2.77% | IC50 [1]: 15.7 ± 1.64 µM; IC50 [2]: 0.01 ± 0.001 µM; Percentage of cells in G0/G1 ([6]; A549, 5 μM): 61.23%; Percentage of cells in G2/M ([6]; A549, 5 μM): 25.31%; Percentage of cells in S ([6]; A549, 5 μM): 13.46%; Percentage of cells in G0/G1 ([6]; A549, 10 μM): 62.42%; Percentage of cells in G2/M ([6]; A549, 10 μM): 23.10%; Percentage of cells in S ([6]; A549, 10 μM): 14.48%; Cell cycle arrest of A549 cells ([6]; A549, 48 h): arrested in the G2/M phase; Induction of apoptosis in A549 cells [7]: induces cellular apoptosis in a concentration-dependent way; IC50 [3]: 12.3 ± 4.12 µM; IC50 [4]: 17.1 ± 3.61 µM |
| 180 to 182 °C | 53.6 ± 1.25% | COc1ccc(/N=C/c2ccc(OCc3nc4ccccc4c(=O)n3C)cc2)cc1 [5e, (E)-2-((4-(((4-methoxyphenyl)imino)methyl)phenoxy)methyl)-3-methylquinazolin-4(3H)-one] | 20.1 ± 9.11% | 25.9 ± 7.46% | 40.2 ± 3.57% |  |

Second part, the compound before the results:

| SMILES | melting point | inhibition at 1 µM [2] | inhibition at 10 µM [1] | inhibition at 10 µM [3] | inhibition at 10 µM [4] | other results |
| --- | --- | --- | --- | --- | --- | --- |
| COc1ccc(-c2nnc(-n3c(-c4ccccc4)nc4cc(Cl)ccc4c3=O)s2)cc1 [I] |  |  |  |  |  | IC50 [5]: 0.32 µM |
| Cn1c(COc2ccc(/C=N/c3cccc(Cl)c3)cc2)nc2ccccc2c1=O [5i, (E)-2-((4-(((3-chlorophenyl)imino)methyl)phenoxy)methyl)-3-methylquinazolin-4(3H)-one] | 179 to 181 °C | 1.04 ± 0.91% | 13.1 ± 2.92% | 23.3 ± 7.52% | 9.6 ± 2.69% |  |
| Cn1c(COc2ccc(/C=N/c3ccc(F)cc3F)cc2)nc2ccccc2c1=O [5n, (E)-2-((4-(((2,4-difluorophenyl)imino)methyl)phenoxy)methyl)-3-methylquinazolin-4(3H)-one] | 181 to 183 °C | 48.4 ± 0.35% | 11.5 ± 2.87% | 33.3 ± 3.63% | 25.8 ± 4.84% |  |
| Cn1c(COc2ccc(/C=N/c3ccc(F)c(Cl)c3)cc2)nc2ccccc2c1=O [5o, (E)-2-((4-(((3-chloro-4-fluorophenyl)imino)methyl)phenoxy)methyl)-3-methyl quinazolin-4(3H)-one] | 188 to 189 °C | 16.7 ± 2.99% | 24.5 ± 1.37% | 18.7 ± 9.78% | 13.9 ± 0.92% |  |
| Cn1c(COc2ccc(/C=N/c3ccc(F)cc3)cc2)nc2ccccc2c1=O [5h, (E)-2-((4-(((4-fluorophenyl)imino)methyl)phenoxy)methyl)-3-methylquinazolin-4(3H)-one] | 200 to 202 °C | 56.2 ± 2.16% | 22.9 ± 1.66% | 14.8 ± 5.06% | 14.8 ± 2.3% |  |
| Cn1c(COc2ccc(/C=N/c3cc(F)cc(F)c3)cc2)nc2ccccc2c1=O [5l, (E)-2-((4-(((3,5-difluorophenyl)imino)methyl)phenoxy)methyl)-3-methylquinazolin-4(3H)-one] | 220 to 221 °C | 61.9 ± 1.51% | 41 ± 2.63% | 31.2 ± 2.49% | 54.3 ± 7.59% | IC50 [1]: 6.04 ± 0.55 µM; IC50 [2]: 0.54 ± 0.031 µM; IC50 [3]: 7.22 ± 3.51 µM; IC50 [4]: 13.3 ± 1.12 µM |
| N[C@@H](Cc1ccccc1)C(=O)Nn1c(-c2ccc(F)cc2)nc2ccc(F)cc2c1=O [II] |  |  |  |  |  | IC50 [5]: 0.164 µM |
| Cn1c(COc2ccc(/C=N/c3ccccc3)cc2)nc2ccccc2c1=O [5a, (E)-3-methyl-2-((4-((phenylimino)methyl)phenoxy)methyl)quinazolin-4(3H)-one] | 150 to 152 °C | 1.91 ± 0.91% | 15.1 ± 5.91% | 15.4 ± 1.52% | 7.36 ± 2.38% |  |
| Cn1c(COc2ccc(/C=N/c3ccccc3F)cc2)nc2ccccc2c1=O [5f, (E)-2-((4-(((2-fluorophenyl)imino)methyl)phenoxy)methyl)-3-methylquinazolin-4 (3H)-one] | 143 to 145 °C | 1.31 ± 3.64% | 2.65 ± 1.81% | 16.3 ± 1.43% | 5.46 ± 0.28% |  |
| O=c1[nH]cc(F)c(=O)[nH]1 [5-Fluorouracil, reference compound] |  | 63.4 ± 1.69% | 29.1 ± 2.75% | 40.4 ± 1.15% | 29.3 ± 1.24% | IC50 [1]: 11.4 ± 1.95 µM; IC50 [2]: 0.14 ± 0.011 µM; IC50 [3]: 1.53 ± 0.72 µM; IC50 [4]: 22.5 ± 0.74 µM |
| Cn1c(COc2ccc(/C=N/c3ccc(Cl)c(C(F)(F)F)c3)cc2)nc2ccccc2c1=O [5p, (E)-2-((4-(((4-chloro-3-(trifluoromethyl)phenyl)imino)methyl)phenoxy)methyl)-3-methylquinazolin-4(3H)-one] | 163 to 164 °C | 4.32 ± 1.92% | 17.5 ± 2.67% | 15.6 ± 2.66% | 22.6 ± 1.28% |  |
| Cc1ccccc1/N=C/c1ccc(OCc2nc3ccccc3c(=O)n2C)cc1 [5b, (E)-3-methyl-2-((4-((o-tolylimino)methyl)phenoxy)methyl)quinazolin-4(3H)-one] | 162 to 164 °C | 2.57 ± 1.25% | 24.3 ± 1.7% | 14.5 ± 4.09% | 23.9 ± 8.59% |  |
| COc1ccccc1/N=C/c1ccc(OCc2nc3ccccc3c(=O)n2C)cc1 [5d, (E)-2-((4-(((2-methoxyphenyl)imino)methyl)phenoxy)methyl)-3-methylquinazolin-4(3H)-one] | 141 to 143 °C | 38.7 ± 1.83% | 2.78 ± 4.23% | 20.8 ± 4.81% | 38.2 ± 1.4% |  |
| COc1cc2ncnc(Nc3ccc(F)c(Cl)c3)c2cc1OCCCN1CCOCC1 [Gefitinib, reference compound] |  |  |  |  |  | Percentage of cells in G0/G1 ([6]; A549, 5 μM): 58.50%; Percentage of cells in S ([6]; A549, 5 μM): 12.03%; Percentage of cells in G0/G1 ([6]; A549, 10 μM): 62.15%; Percentage of cells in S ([6]; A549, 10 μM): 13.56% |
